Assay results reported in the supplement of paper PMC10307832.

What was measured:
Assay in all cases: relative viability (nuclei count vs DMSO), 5 days (fraction); higher = more cells survive
Axitinib + Navitoclax = compound: CNC(=O)c1ccccc1Sc1ccc2c(/C=C/c3ccccn3)n[nH]c2c1 [Axitinib] + CC1(C)CCC(c2ccc(Cl)cc2)=C(CN2CCN(c3ccc(C(=O)NS(=O)(=O)c4ccc(N[C@H](CCN5CCOCC5)CSc5ccccc5)c(S(=O)(=O)C(F)(F)F)c4)cc3)CC2)C1 [Navitoclax] (partner 0.5 µM)
Method in brief: (§1)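 For relative viability, nuclei counts in treated wells were divided by those in vehicle wells. Lung cancer cell lines had been pin-tool dosed in 1536-well plates the day after seeding and cultured for 5 days, then fixed and stained in one step (final 0.05% Triton X-100, 1% formaldehyde, 1 ug/ml Hoechst) and imaged at 4×. Doses were one drug alone or a fixed anchor-drug dose plus five library-drug doses (not always all listed) in √10 steps, and values are duplicate-plate medians.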

Bemcentinib + AZD7762 = compound: Nc1nc(Nc2ccc3c(c2)CC[C@@H](N2CCCC2)CC3)nn1-c1cc2c(nn1)-c1ccccc1CCC2 [Bemcentinib] + NC(=O)Nc1cc(-c2cccc(F)c2)sc1C(=O)N[C@H]1CCCNC1 [AZD7762] (partner 0.2 µM)
Method in brief: as §1

Bemcentinib + Decitabine = compound: Nc1nc(Nc2ccc3c(c2)CC[C@@H](N2CCCC2)CC3)nn1-c1cc2c(nn1)-c1ccccc1CCC2 [Bemcentinib] + Nc1ncn([C@H]2C[C@H](O)[C@@H](CO)O2)c(=O)n1 [Decitabine] (partner 2 µM)
Method in brief: as §1

Bemcentinib + Vorinostat = compound: Nc1nc(Nc2ccc3c(c2)CC[C@@H](N2CCCC2)CC3)nn1-c1cc2c(nn1)-c1ccccc1CCC2 [Bemcentinib] + O=C(CCCCCCC(=O)Nc1ccccc1)NO [Vorinostat] (partner 1 µM)
Method in brief: as §1

Row | Cell Line | relative viability (Axitinib + Navitoclax; first compound 0.005 µM) | relative viability (Axitinib + Navitoclax; first compound 0.01581 µM) | relative viability (Axitinib + Navitoclax; first compound 0.05 µM) | relative viability (Axitinib + Navitoclax; first compound 0.1581 µM) | relative viability (Axitinib + Navitoclax; first compound 0.5 µM) | relative viability (Bemcentinib + AZD7762; first compound 0.04 µM) | relative viability (Bemcentinib + AZD7762; first compound 0.1265 µM) | relative viability (Bemcentinib + AZD7762; first compound 0.4 µM) | relative viability (Bemcentinib + AZD7762; first compound 1.265 µM) | relative viability (Bemcentinib + AZD7762; first compound 4 µM) | relative viability (Bemcentinib + Decitabine; first compound 0.04 µM) | relative viability (Bemcentinib + Decitabine; first compound 0.1265 µM) | relative viability (Bemcentinib + Decitabine; first compound 0.4 µM) | relative viability (Bemcentinib + Decitabine; first compound 1.265 µM) | relative viability (Bemcentinib + Decitabine; first compound 4 µM) | relative viability (Bemcentinib + Vorinostat; first compound 0.04 µM) | relative viability (Bemcentinib + Vorinostat; first compound 0.1265 µM) | relative viability (Bemcentinib + Vorinostat; first compound 0.4 µM) | relative viability (Bemcentinib + Vorinostat; first compound 1.265 µM) | relative viability (Bemcentinib + Vorinostat; first compound 4 µM)
1 | NCI-H1355 | 0.992 | 0.921 | 0.948 | 1.01 | 0.991 | 0.742 | 0.742 | 0.78 | 0.834 | 0.576 | 0.341 | 0.35 | 0.376 | 0.347 | 0.431 | 0.596 | 0.617 | 0.701 | 0.65 | 0.687
2 | H3255 | 0.617 | 0.377 | 0.354 | 0.476 | 0.561 | 0.814 | 0.887 | 0.874 | 0.773 | 0.839 |  | 0.574 | 0.681 | 0.648 | 0.68 |  | 0.755 | 0.772 | 0.784 | 0.772
3 | NCI-H1915 | 0.802 | 0.778 | 0.77 | 0.753 | 0.812 | 0.671 | 0.695 | 0.701 | 0.726 | 0.652 | 0.24 | 0.25 | 0.255 | 0.252 | 0.257 | 0.508 | 0.518 | 0.547 | 0.55 | 0.491
4 | NCI-H3122 | 0.992 | 0.956 | 1.05 | 1.02 | 1.04 | 0.682 | 1.04 | 1.03 | 1.12 | 1.06 | 0.429 | 0.385 | 0.456 | 0.449 | 0.491 | 0.548 | 1.07 | 1.11 | 1.06 | 0.983
5 | NCI-H2170 | 0.661 | 0.715 | 0.621 | 0.617 | 0.707 | 0.839 | 1.07 | 0.902 | 0.93 | 0.925 | 0.457 | 0.48 | 0.463 | 0.519 | 0.479 | 0.732 | 0.855 | 0.992 | 0.745 | 0.897
6 | NCI-H441 | 0.521 | 1 | 0.727 | 0.754 | 0.994 | 1.33 | 1.29 | 1.1 | 1.41 | 1.29 | 0.208 | 0.276 | 0.218 | 0.236 | 0.255 | 0.691 | 0.824 | 0.735 | 0.87 | 0.756
7 | NCI-H2087 | 1.24 | 1.1 | 1.04 | 0.899 | 1.07 | 1.4 | 1.41 | 1.42 | 1.49 | 1.47 | 0.295 | 0.318 | 0.281 | 0.265 | 0.302 | 0.567 | 0.836 | 1.1 | 0.665 | 0.678
8 | RERF-LC-KJ | 1 | 0.942 | 0.973 | 1.02 | 1.28 | 0.996 | 0.957 | 0.967 | 0.982 | 0.888 | 0.676 | 0.729 | 0.784 | 0.855 | 0.752 | 0.699 | 0.732 | 0.713 | 0.635 | 0.65
9 | NCI-H1437 | 1.14 | 1.07 | 1.13 | 1.11 | 1.09 | 1.09 | 1.12 | 1.13 | 1.15 | 1.09 | 0.58 | 0.602 | 0.558 | 0.584 | 0.571 | 0.857 | 0.914 | 0.97 | 0.955 | 0.889
10 | NCI-H1651 | 1.07 | 0.984 | 1.06 | 1.1 | 1.15 | 0.506 | 0.504 | 0.491 | 0.536 | 0.455 | 0.588 | 0.623 | 0.678 | 0.491 | 0.584 | 0.532 | 0.557 | 0.569 | 0.476 | 0.613
11 | PC-14 | 1.09 | 1.01 | 1.05 | 0.967 | 1.05 | 0.262 | 0.419 | 0.328 | 0.334 | 0.292 | 0.209 | 0.213 | 0.204 | 0.176 | 0.197 | 0.681 | 0.696 | 0.979 | 0.83 | 0.664
12 | NCI-H1666 | 0.975 | 0.91 | 1.01 | 0.914 | 1.18 | 0.95 | 0.91 | 0.867 | 0.768 | 0.704 | 0.618 | 0.872 | 0.722 | 0.592 | 0.632 | 1.02 | 1.24 | 1.07 | 1 | 0.998
13 | LK-2 | 1.1 | 0.84 | 0.657 | 0.659 | 0.644 | 0.281 | 0.42 | 0.289 | 0.508 | 0.48 | 0.214 | 0.374 | 0.342 | 0.23 | 0.313 | 0.497 | 0.253 | 0.171 | 0.281 | 0.365
14 | HCC-44 | 1.04 | 1.06 | 0.99 | 0.939 | 1.12 | 1.07 | 1.05 | 1.01 | 1.08 | 1.04 | 0.954 | 0.986 | 0.947 | 0.978 | 0.957 | 1.15 | 1.2 | 1.05 | 1.13 | 1.08
15 | PC-3 [JPC-3] | 0.827 |  | 0.787 | 0.82 | 0.928 | 0.799 | 0.899 | 0.828 | 0.847 | 0.812 | 0.773 | 0.897 | 0.804 | 0.822 | 0.804 | 0.898 | 0.735 | 0.784 | 0.725 | 0.752
16 | LC-2-ad | 0.572 | 0.576 | 0.532 | 0.506 | 0.573 | 0.807 | 0.838 | 1.01 | 0.831 | 0.84 | 0.79 | 0.724 | 0.824 | 0.817 | 0.756 | 0.705 | 0.805 | 0.73 | 0.726 | 0.737
17 | ChaGo-K-1 | 1.07 | 0.779 | 1.13 | 0.921 | 0.895 | 0.838 | 0.976 | 0.919 | 0.907 | 0.958 | 0.566 | 0.537 | 0.538 | 0.536 | 0.556 | 0.686 | 0.832 | 0.823 | 0.749 | 0.755
18 | NCI-H460 | 1.12 | 0.964 | 1.17 | 0.984 | 1.18 | 0.678 | 0.694 | 0.668 | 0.581 | 0.407 | 0.479 | 0.595 | 0.605 | 0.483 | 0.5 | 0.696 | 0.981 | 1.21 | 0.838 | 0.73
19 | NCI-H1395 | 1.14 | 1.21 | 1.02 | 1.01 | 1.57 |  | 0.404 | 0.425 | 0.406 | 0.366 |  | 0.683 | 0.757 | 0.737 | 0.745 |  | 0.681 | 0.674 | 0.716 | 0.634
20 | NCI-H727 | 0.582 | 0.466 | 0.454 | 0.451 | 0.61 | 0.527 | 0.575 | 0.483 | 0.495 | 0.569 | 0.832 | 0.932 | 0.807 | 0.717 | 0.891 | 1.02 | 1.14 | 1.18 | 0.858 | 1.2
21 | NCI-H838 | 1.2 | 1.18 | 1.21 | 1.15 | 1.3 | 0.942 | 0.975 | 1.02 | 0.998 | 0.917 | 0.483 | 0.484 | 0.497 | 0.47 | 0.517 | 0.746 | 0.799 | 0.718 | 0.82 | 0.719
22 | NCI-H1755 | 1.04 | 0.92 | 0.99 | 0.964 | 1 | 0.47 | 0.704 | 0.439 | 0.434 | 0.469 | 0.724 | 0.671 | 0.726 | 0.674 | 0.718 | 0.783 | 0.808 | 0.754 | 0.823 | 0.923
23 | EMC-BAC-2 | 1.27 | 1.12 | 1.16 | 1.16 | 1.27 | 1.14 | 1.11 | 1.14 | 1.02 | 1.06 | 0.955 | 1 | 1.12 | 0.997 | 1.01 | 0.38 | 0.413 | 0.537 | 0.358 | 0.4
24 | EKVX | 1.07 | 0.962 | 0.823 | 0.921 | 0.961 | 0.623 | 0.719 | 0.759 | 0.723 | 0.717 | 0.325 | 0.345 | 0.292 | 0.345 | 0.39 | 0.509 | 0.815 | 0.726 | 0.701 | 0.79
25 | NCI-H647 | 1.21 | 1.12 | 1.03 | 1.2 | 1.28 | 0.346 | 0.539 | 0.498 | 0.511 | 0.31 | 0.386 | 0.296 | 0.494 | 0.368 | 0.454 | 0.649 | 0.55 | 0.594 | 0.424 | 0.675
26 | LU99A | 0.858 | 0.805 | 0.83 | 0.773 | 0.902 | 0.377 | 0.375 | 0.394 | 0.344 | 0.35 | 0.918 | 0.882 | 0.899 | 0.975 | 0.987 | 0.472 | 0.482 | 0.468 | 0.477 | 0.436
27 | NCI-H1734 | 0.903 | 0.839 | 0.843 | 0.861 | 0.971 | 0.516 | 0.611 | 0.613 | 0.518 | 0.441 | 0.401 | 0.533 | 0.595 | 0.472 | 0.447 | 0.788 | 0.773 | 0.853 | 0.833 | 0.828
